Reference: BindingDB's records for patent US12528814 (Nurix Therapeutics, 2026)

Biological target: T1, Interleukin-1 receptor-associated kinase 4 (Homo sapiens, UniProt Q9NWZ3)
T1 sequence (Q9NWZ3 whole entry): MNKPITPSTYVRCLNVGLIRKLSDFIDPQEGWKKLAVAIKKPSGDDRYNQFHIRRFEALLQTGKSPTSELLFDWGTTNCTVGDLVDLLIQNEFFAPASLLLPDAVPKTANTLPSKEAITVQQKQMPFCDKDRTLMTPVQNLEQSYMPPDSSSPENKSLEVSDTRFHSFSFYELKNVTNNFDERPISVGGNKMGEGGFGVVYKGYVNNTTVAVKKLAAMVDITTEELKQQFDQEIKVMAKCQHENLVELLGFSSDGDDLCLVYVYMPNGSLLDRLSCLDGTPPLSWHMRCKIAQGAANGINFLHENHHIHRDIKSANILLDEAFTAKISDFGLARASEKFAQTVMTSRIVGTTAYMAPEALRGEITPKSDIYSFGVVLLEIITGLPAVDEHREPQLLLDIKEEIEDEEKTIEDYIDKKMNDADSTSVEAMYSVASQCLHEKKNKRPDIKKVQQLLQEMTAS
Test: IRAK4 Biochemical HTRF Kinase Assay
Procedure: The binding capacities of certain bifunctional compounds of Formula (I) were determined using the CisBio HTRF KinEASE STK S1 Kit (#62ST1PEB, contains 5× Kinase buffer, 1× Detection Buffer, anti-phospho-serine/threonine-cryptate, Streptavidin-XL665, and STK-S1), which measures the phosphorylation of a biotinylated peptide substrate by IRAK4, according to the manufacturer's protocol. Briefly, test compounds in DMSO were serially diluted into 384 Plus White Proxiplate (PerkinElmer, #6008280) using a Labcyte Echo 550 Liquid Handler, at a concentration of 50× final in 200 nL of 100% DMSO. 7.8 μl of kinase solution, containing 1.28 nM IRAK4 in 1× Kinase Buffer (supplemented with 3 mM MgCl2, 0.01% Triton X-100, and 1 mM DTT) was added to each compound containing well and incubated at ambient temperature for 30 min. 2 μl of a reaction solution containing 5 μM STK-S1, 10 mM ATP, and 10 mM MgCl2 were added to each well to a final volume of 10 μl. Assay controls include wells containing kinase with no compound (DMSO only) and wells containing no kinase and no compound (DMSO only). The reactions were allowed to proceed at ambient temperature for 90 minutes. […] The plates were incubated for 60 minutes at ambient temperature and then read on an Envision Multilabel Reader (PerkinElmer). […]

Molecule `CNc1cc(-c2ccc3cc(C#N)cnn23)ncc1-c1nnc(C23CCC(NC(=O)C4CCN(c5cccc6c5C(=O)N(C5CCC(=O)NC5=O)C6=O)CC4)(CC2)CC3)s1` (stereo unspecified) [US12528814, Example 136] has an IC50 of 1.6 nM.
